Patent publication US20220378706A1, “PHARMACEUTICAL COMPOSITION COMPRISING PDE9 INHIBITOR” (Eisai R&D Management Co., Ltd., priority 2017, published 2022)
Like-named read-outs stand apart in the source and are kept apart here.

Assay: Single dose clinical study: plasma Compound A pharmacokinetics
Assay type: in vivo, human
Description: This was a single center, single dose, randomized, double blind, placebo controlled study in healthy subjects. It consisted of 4 parts: Parts A, B, C, and D. Each of the four study parts had 2 phases: Prerandomization Phase and Randomization Phase. The Prerandomization Phase lasted up to 30 days and consisted of a Screening Period and a Baseline Period, during which each subject's study eligibility was determined and baseline assessments were performed.
In Part A, there were 8 sequential cohorts of healthy adult subjects (18-50 years of age). Subjects were randomly assigned to Compound A or placebo in a ratio of 6:2, respectively. Subjects in the Compound A cohorts were treated with single ascending doses of 10, 25, 50, 100, 200, 400, 800, or 1200 mg.
In Part B, there were 4 cohorts of healthy adult subjects (18-50 years of age). There were 8 subjects in Cohort 1, with 6 subjects randomly assigned to receive single doses of Compound A (400 mg) and 2 subjects randomly assigned to receive placebo. There were 7 subjects in Cohort 2 and Cohort 3, each with 6 subjects randomly assigned to receive single doses of Compound A (100 and 200 mg, respectively) and 1 subject randomly assigned to receive placebo. The dose of 100 mg selected in Cohort 2 was based on preliminary analysis of Cohort 1 data; this dose was predicted from PK/PD modeling to achieve a sustained CSF cGMP increase from baseline of approximately 200% when administered to steady state, and thereby provided a potentially therapeutic dose for further evaluation in future studies. There were 7 subjects in Cohort 4, with 6 subjects randomly assigned to receive a single dose of Compound A (50 mg [n=3] or 75 mg [n=3]) and 1 subject randomly assigned to receive placebo. The doses for Cohorts 3 and 4 were selected based on PK/PD modeling of the data in Cohorts 1 and 2.
Subjects in Cohort 2 who had received Compound A 100 mg or placebo under fasted conditions (1st Treatment Period) also participated in an evaluation of food effect on the PK of Compound A (2nd Treatment Period). After a washout period of at least 13 days (or 5 half-lives of Compound A, whichever was longer), subjects were admitted to the clinic for baseline assessments (2nd Baseline Period) and then received a single dose of the same treatment (Compound A 100 mg or placebo) after consuming a high fat and high calorie meal over 30 minutes. Blood PK samples were collected at prespecified time points. Safety evaluations were also assessed. CSF was not collected for PD evaluation during the 2nd Treatment Period. A Follow Up Visit occurred on Day 10 of Treatment Period 2.
In Part C, there was 1 cohort of 8 healthy elderly subjects (65 to 85 years of age) randomly assigned to receive a single dose of Compound A 100 mg or placebo in a ratio of 6:2, respectively.
In Part D, 3 cohorts of healthy adult Japanese subjects were randomized in parallel. There were 7 subjects in each cohort and subjects were randomly assigned to receive single doses of Compound A (25, 100, or 400 mg) or placebo in a ratio of 6:1, respectively.
Blood samples for determination of plasma Compound A concentrations were collected from predose to 216 hours postdose. On Day 1, blood PK samples were collected at predose and postdose 0.5 (30 minutes), 1, 1.5, 2, 3, 4, 5, 6, 8, 12, and 18 hours. Thereafter, samples were collected on Day 2 (24 and 36 hours postdose), Day 3 (48 hours postdose), Day 4 (72 hours postdose), Day 5 (96 hours postdose), Day 6 (120 hours postdose), Day 7 (144 hours postdose), and Day 10 (216 hours postdose).
Blood samples for determination of plasma Compound A concentrations were collected from predose to 216 hours postdose. For all cohorts, blood PK samples were collected on Day 1 at predose and postdose at 0.5 (30 minutes), 1, 1.5, 2, 3, 4, 5, 6, 8, 10, 12, and 18 hours. […]

[1] = 100 mg after high-fat and high-calorie meal
[2] = 400 mg, with weight as a covariate
[3] = Elderly:Younger Adults, single oral 100 mg
[4] = Japanese:non-Japanese, 25 mg, with weight as covariate
[5] = Japanese:non-Japanese, 25 mg, without weight as covariate
[6] = Japanese:non-Japanese, 100 mg, with weight as covariate
[7] = Japanese:non-Japanese, 100 mg, without weight as covariate
[8] = Japanese:non-Japanese, 400 mg, with weight as covariate
[9] = Japanese:non-Japanese, 400 mg, without weight as covariate

SMILES: COc1ncc(C)c(-c2ccc3c(c2)[nH]c(=O)c2cnn([C@H]4CCOC4)c23)c1C [Compound A, (S)-7-(2-methoxy-3,5-dimethylpyridin-4-yl)-1-(tetrahydrofuran-3-yl)-1H-pyrazolo[4,3-c]quin olin-4(5H)-one]
- geometric LS mean Cmax higher in Japanese than non-Japanese (25 mg, with weight as a covariate): 35.6%
- geometric LS mean AUC(0-inf) higher in elderly than in younger healthy adult subjects (100 mg): approximately 41.5%
- geometric LS mean Cmax higher in elderly than in younger healthy adult subjects (100 mg): approximately 45.5%
- increase in the geometric LS mean Cmax, fed vs fasted (100 mg after high fat and high calorie meal): 44.4%
- increase in the geometric LS mean AUC(0-inf), fed vs fasted [1]: 19.2%
- increase in the geometric LS mean Cmax, fed vs fasted [1]: 44.400
- geometric LS mean Cmax higher in Japanese than non-Japanese (100 mg, with weight as a covariate): 30.0%
- geometric LS mean AUC(0-inf) higher in Japanese than non-Japanese [2]: 27.9%
- geometric LS mean Cmax higher in Japanese than non-Japanese [2]: 40.4%
- geometric LS mean Cmax higher in Japanese than non-Japanese across the 3 doses (25, 100, 400 mg): 35.2%
- AUC(0-inf) Geometric LS Mean Ratio (90% CI) [3]: 1.415 (1.168, 1.715)
- Cmax Geometric LS Mean Ratio (90% CI) [3]: 1.455 (1.198, 1.766)
- AUC(0-inf) Geometric LS Mean Ratio (90% CI) (Fed:Fasted, 100 mg, Part B): 1.192 (1.003, 1.418)
- AUC(0-t) Geometric LS Mean Ratio (90% CI) (Fed:Fasted, 100 mg, Part B): 1.186 (0.992, 1.418)
- Cmax Geometric LS Mean Ratio (90% CI) (Fed:Fasted, 100 mg, Part B): 1.444 (1.210, 1.723)
- AUC(O-inf) Geometric LS Mean Ratio (90% CI) [4]: 1.035 (0.819, 1.308)
- Cmax Geometric LS Mean Ratio (90% CI) [4]: 1.356 (1.082, 1.699)
- AUC(O-inf) Geometric LS Mean Ratio (90% CI) [5]: 1.057 (0.845, 1.323)
- Cmax Geometric LS Mean Ratio (90% CI) [5]: 1.394 (1.122, 1.732)
- AUC(O-inf) Geometric LS Mean Ratio (90% CI) [6]: 0.935 (0.767, 1.140)
- Cmax Geometric LS Mean Ratio (90% CI) [6]: 1.300 (1.074, 1.573)
- AUC(O-inf) Geometric LS Mean Ratio (90% CI) [7]: 0.944 (0.778, 1.147)
- Cmax Geometric LS Mean Ratio (90% CI) [7]: 1.317 (1.091, 1.589)
- AUC(O-inf) Geometric LS Mean Ratio (90% CI) [8]: 1.279 (1.035, 1.580)
- Cmax Geometric LS Mean Ratio (90% CI) [8]: 1.404 (1.145, 1.721)
- AUC(O-inf) Geometric LS Mean Ratio (90% CI) [9]: 1.300 (1.059, 1.595)
- Cmax Geometric LS Mean Ratio (90% CI) [9]: 1.433 (1.176, 1.747)
- AUC (human, plasma, oral, 25 mg, Japanese, 25 mg, with weight as covariate, read-out: AUC(O-inf) Geometric LS Means Test): 4500 ng·h/mL
- Cmax (human, plasma, oral, 25 mg, Japanese, 25 mg, with weight as covariate, read-out: Cmax Geometric LS Means Test): 207 ng/mL
- AUC (human, plasma, oral, 25 mg, Japanese, 25 mg, without weight as covariate, read-out: AUC(O-inf) Geometric LS Means Test): 4580 ng·h/mL
- Cmax (human, plasma, oral, 25 mg, Japanese, 25 mg, without weight as covariate, read-out: Cmax Geometric LS Means Test): 212 ng/mL
- AUC (human, plasma, oral, 25 mg, non-Japanese, 25 mg, with weight as covariate, read-out: AUC(O-inf) Geometric LS Means Reference): 4350 ng·h/mL
- Cmax (human, plasma, oral, 25 mg, non-Japanese, 25 mg, with weight as covariate, read-out: Cmax Geometric LS Means Reference): 152 ng/mL
- AUC (human, plasma, oral, 25 mg, non-Japanese, 25 mg, without weight as covariate, read-out: AUC(O-inf) Geometric LS Means Reference): 4340 ng·h/mL
- Cmax (human, plasma, oral, 25 mg, non-Japanese, 25 mg, without weight as covariate, read-out: Cmax Geometric LS Means Reference): 152 ng/mL
- AUC(0-inf) (human, plasma, oral, 100 mg, Fasted, 100 mg, Part B, read-out: AUC(0-inf) Geometric LS Means Reference): 14500 ng·h/mL
- AUC(0-t) (human, plasma, oral, 100 mg, Fasted, 100 mg, Part B, read-out: AUC(0-t) Geometric LS Means Reference): 14400 ng·h/mL
- Cmax (human, plasma, oral, 100 mg, Fasted, 100 mg, Part B, read-out: Cmax Geometric LS Means Reference): 371 ng/mL
- AUC(0-inf) (human, plasma, oral, 100 mg, Fed, 100 mg, Part B, read-out: AUC(0-inf) Geometric LS Means Test): 17300 ng·h/mL
- AUC(0-t) (human, plasma, oral, 100 mg, Fed, 100 mg, Part B, read-out: AUC(0-t) Geometric LS Means Test): 17100 ng·h/mL
- Cmax (human, plasma, oral, 100 mg, Fed, 100 mg, Part B, read-out: Cmax Geometric LS Means Test): 536 ng/mL
- AUC (human, plasma, oral, 100 mg, Japanese, 100 mg, with weight as covariate, read-out: AUC(O-inf) Geometric LS Means Test): 14200 ng·h/mL
- Cmax (human, plasma, oral, 100 mg, Japanese, 100 mg, with weight as covariate, read-out: Cmax Geometric LS Means Test): 491 ng/mL
- AUC (human, plasma, oral, 100 mg, Japanese, 100 mg, without weight as covariate, read-out: AUC(O-inf) Geometric LS Means Test): 14200 ng·h/mL
- Cmax (human, plasma, oral, 100 mg, Japanese, 100 mg, without weight as covariate, read-out: Cmax Geometric LS Means Test): 492 ng/mL
- AUC (human, plasma, oral, 100 mg, non-Japanese, 100 mg, with weight as covariate, read-out: AUC(O-inf) Geometric LS Means Reference): 15200 ng·h/mL
- Cmax (human, plasma, oral, 100 mg, non-Japanese, 100 mg, with weight as covariate, read-out: Cmax Geometric LS Means Reference): 378 ng/mL
- AUC (human, plasma, oral, 100 mg, non-Japanese, 100 mg, without weight as covariate, read-out: AUC(O-inf) Geometric LS Means Reference): 15000 ng·h/mL
- Cmax (human, plasma, oral, 100 mg, non-Japanese, 100 mg, without weight as covariate, read-out: Cmax Geometric LS Means Reference): 373 ng/mL
- half-life (human, plasma, oral, 100 mg, read-out: mean terminal half-life longer in elderly than in younger healthy adult subjects (converted)): ~10 h
- AUC (human, plasma, oral, 400 mg, Japanese, 400 mg, with weight as covariate, read-out: AUC(O-inf) Geometric LS Means Test): 46000 ng·h/mL
- Cmax (human, plasma, oral, 400 mg, Japanese, 400 mg, with weight as covariate, read-out: Cmax Geometric LS Means Test): 1170 ng/mL
- AUC (human, plasma, oral, 400 mg, Japanese, 400 mg, without weight as covariate, read-out: AUC(O-inf) Geometric LS Means Test): 46500 ng·h/mL
- Cmax (human, plasma, oral, 400 mg, Japanese, 400 mg, without weight as covariate, read-out: Cmax Geometric LS Means Test): 1180 ng/mL
- AUC (human, plasma, oral, 400 mg, non-Japanese, 400 mg, with weight as covariate, read-out: AUC(O-inf) Geometric LS Means Reference): 36000 ng·h/mL
